Assay results from patent US20240132484A1, “BROAD SPECTRUM ANTIVIRAL COMPOUNDS TARGETING THE SKI COMPLEX” (priority 2020, published 2024).
Several values for one entry are separate records, joined by “and”; a condition that tells them apart may be missing. Equal values may be shown once. Read-outs that look alike come from different tables or passages of the source.

How the values were obtained:
SARS2 = format: cell-based, SARS-CoV-2; settings: for Percentage Infection Relative to Appropriate DMSO Control: avg background subtraction

CCOc1cccc(CNCCc2ccccc2F)c1OCC(O)CN1CCN(C)CC1 (stereo not drawn) [SILCS3]
Percentage Infection Relative to Appropriate DMSO Control (SARS2; 1 uM, Exp 1 (SMW454), single wells): 102.18% and 96.08% and 79.31% | Percentage Infection Relative to Appropriate DMSO Control (SARS2; 5 uM, Exp 1 (SMW454), single wells): 110.38% and 99.87% and 94.40% | Percentage Infection Relative to Appropriate DMSO Control (SARS2; 10 uM, Exp 1 (SMW454), single wells): 98.93% and 87.99% and 82.55% | Percentage Infection Relative to Appropriate DMSO Control (SARS2; 25 uM, Exp 1 (SMW454), single wells): 73.36% and 69.10% and 58.07% | Percentage Infection Relative to Appropriate DMSO Control (SARS2; 50 uM, Exp 1 (SMW454), single wells): 38.76% and 39.55% and 35.10% | Infection Data, Average, Mean (SARS2; Average of Exp 1-3, n 9, 1 uM): 77.07% | Infection Data, Average, Mean (SARS2; Average of Exp 1-3, n 9, 5 uM): 48.45% | Infection Data, Average, Mean (SARS2; Average of Exp 1-3, n 9, 10 uM): 46.02% | Infection Data, Average, Mean (SARS2; Average of Exp 1-3, n 9, 25 uM): 22.24% | Infection Data, Average, Mean (SARS2; Average of Exp 1-3, n 9, 50 uM): 12.53% | Percentage Infection Relative to Appropriate DMSO Control (SARS2; Exp 2 (SMW466), 1 uM): 97.83% and 85.97% and 85.21% | Percentage Infection Relative to Appropriate DMSO Control (SARS2; Exp 2 (SMW466), 5 uM): 25.85% and 18.37% and 25.06% | Percentage Infection Relative to Appropriate DMSO Control (SARS2; Exp 2 (SMW466), 10 uM): 15.71% and 12.38% and 8.39% | Percentage Infection Relative to Appropriate DMSO Control (SARS2; Exp 2 (SMW466), 25 uM): −2.25% and −2.53% and 0.99% | Percentage Infection Relative to Appropriate DMSO Control (SARS2; Exp 2 (SMW466), 50 uM): −2.52% and −3.00% and 0.03% | Percentage Infection Relative to Appropriate DMSO Control (SARS2; Exp 3 (SMW480), 1 uM): 55.68% and 51.29% and 40.12% | Percentage Infection Relative to Appropriate DMSO Control (SARS2; Exp 3 (SMW480), 25 uM): 6.43% and −0.12% and −2.91% | Percentage Inhibition Average 1 μM (SARS2; SARS2, 1 μM): 22.93% | Screening data (Relative infection to DMSO controls) Average 1 μM (SARS2; SARS2, 1 μM, 100=DMSO control): 77.07 | Percentage Inhibition Average 5 μM (SARS2; SARS2, 5 μM): 51.55% | Screening data (Relative infection to DMSO controls) Average 5 μM (SARS2; SARS2, 5 μM, 100=DMSO control): 48.45 | Percentage Inhibition Average 10 μM (SARS2; SARS2, 10 μM): 53.98% | Screening data (Relative infection to DMSO controls) Average 10 μM (SARS2; SARS2, 10 μM, 100=DMSO control): 46.02 | Percentage Inhibition Average 25 μM (SARS2; SARS2, 25 μM): 77.76% | Screening data (Relative infection to DMSO controls) Average 25 μM (SARS2; SARS2, 25 μM, 100=DMSO control): 22.24 | Percentage Inhibition Average 50 μM (SARS2; SARS2, 50 μM): 87.47% | Screening data (Relative infection to DMSO controls) Average 50 μM (SARS2; SARS2, 50 μM, 100=DMSO control): 12.53 | Average (relative infection to DMSO over the 5 tested concentrations) (SARS2; SARS2, average over 1 to 50 uM, 100=DMSO control): 41.26 | Relative cell count to DMSO controls, Average 1 μM (cells (nuclei count); 1 μM, toxicity data, 100=DMSO control): 114.7 | Relative cell count to DMSO controls, Average 5 μM (cells (nuclei count); 5 μM, toxicity data, 100=DMSO control): 125.56 | Relative cell count to DMSO controls, Average 10 μM (cells (nuclei count); 10 μM, toxicity data, 100=DMSO control): 124.47 | Relative cell count to DMSO controls, Average 25 μM (cells (nuclei count); 25 μM, toxicity data, 100=DMSO control): 117.43 | Relative cell count to DMSO controls, Average 50 μM (cells (nuclei count); 50 μM, toxicity data, 100=DMSO control): 86.97 | Toxicity Data, Average, Mean (cells (nuclei count); Average of Exp 1-3, n 9, 1 uM): 114.70% | Toxicity Data, Average, Mean (cells (nuclei count); Average of Exp 1-3, n 9, 5 uM): 125.56% | Toxicity Data, Average, Mean (cells (nuclei count); Average of Exp 1-3, n 9, 10 uM): 124.47% | Toxicity Data, Average, Mean (cells (nuclei count); Average of Exp 1-3, n 9, 25 uM): 117.43% | Toxicity Data, Average, Mean (cells (nuclei count); Average of Exp 1-3, n 9, 50 uM): 86.97% | Toxicity Data, nuclei count relative to DMSO controls (cells (nuclei count); Exp 1 (SMW454), 1 uM): 108.7% and 108.1% and 97.2% | Toxicity Data, nuclei count relative to DMSO controls (cells (nuclei count); Exp 1 (SMW454), 5 uM): 105.8% and 104.1% and 93.5% | Toxicity Data, nuclei count relative to DMSO controls (cells (nuclei count); Exp 1 (SMW454), 10 uM): 112.5% and 109.3% and 98.7% | Toxicity Data, nuclei count relative to DMSO controls (cells (nuclei count); Exp 1 (SMW454), 25 uM): 102.5% and 101.9% and 95.9% | Toxicity Data, nuclei count relative to DMSO controls (cells (nuclei count); Exp 1 (SMW454), 50 uM): 93.7% and 93.9% and 95.7% | Toxicity Data, nuclei count relative to DMSO controls (cells (nuclei count); Exp 2 (SMW466), 1 uM): 110.2% and 122.4% and 99.6% | Toxicity Data, nuclei count relative to DMSO controls (cells (nuclei count); Exp 2 (SMW466), 5 uM): 143.6% and 141.9% and 102.7% | Toxicity Data, nuclei count relative to DMSO controls (cells (nuclei count); Exp 2 (SMW466), 10 uM): 139.8% and 146.3% and 105.1% | Toxicity Data, nuclei count relative to DMSO controls (cells (nuclei count); Exp 2 (SMW466), 25 uM): 131.0% and 122.3% and 75.1% | Toxicity Data, nuclei count relative to DMSO controls (cells (nuclei count); Exp 2 (SMW466), 50 uM): 81.8% and 76.6% and 53.5% | Toxicity Data, nuclei count relative to DMSO controls (cells (nuclei count); Exp 3 (SMW480), 1 uM): 131.1% and 136.5% and 118.6% | Toxicity Data, nuclei count relative to DMSO controls (cells (nuclei count); Exp 3 (SMW480), 5 uM): 154.5% and 147.8% and 136.1% | Toxicity Data, nuclei count relative to DMSO controls (cells (nuclei count); Exp 3 (SMW480), 10 uM): 156.3% and 129.5% and 122.8% | Toxicity Data, nuclei count relative to DMSO controls (cells (nuclei count); Exp 3 (SMW480), 25 uM): 157.9% and 155.8% and 114.5% | Toxicity Data, nuclei count relative to DMSO controls (cells (nuclei count); Exp 3 (SMW480), 50 uM): 117.7% and 89.8% and 80.0% | Relative cell count to DMSO controls, Average (for correlation analysis) (cells (nuclei count); average value over the 5 tested concentrations (1 to 50 uM)): 113.83
